Assay results as given in patent publication US8455665B2, “3-phenoxymethylpyrrolidine compounds” (Theravance, Inc., priority 2009, dated 2013).

How the values were obtained:
SERT and NET = details: cited from earlier work
SERT [1] = biological target: T1, SERT (Homo sapiens, UniProt P31645); assay: hSERT membrane radioligand binding assay (3H-citalopram); parameters: expressed in transfected cells; host or cells: HEK-293; details: hSERT membranes (HEK-293), 1.0 nM 3H-citalopram; for Ki: read-out: SERT pKi (converted)
Method in brief: (§1)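 HEK-293 membranes stably expressing hNET or hSERT; inhibition of ³H-nisoxetine (hNET) or ³H-citalopram (hSERT) binding in 50 mM Tris-HCl, 120 mM NaCl, 5 mM KCl, pH 7.4, 60 min at 22 °C. Filtration, scintillation counting; nonspecific with 1 μM desipramine (NET) or 1 μM duloxetine (SERT). pKi via Cheng-Prusoff from IC50 and radioligand Kd.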

NET [2] = biological target: T2, NET (Homo sapiens, UniProt P23975); assay: hNET membrane radioligand binding assay (3H-nisoxetine); parameters: expressed in transfected cells; host or cells: HEK-293; details: hNET membranes (HEK-293), 1.0 nM 3H-nisoxetine; for Ki: read-out: NET pKi (converted)
Method in brief: as §1

SERT [3] = biological target: T1, SERT; assay: hSERT neurotransmitter uptake assay (3H-5-HT); format: cell-based; parameters: expressed in transfected cells; host or cells: HEK-293; details: serotonin reuptake inhibition, HEK-293 hSERT cells, 3H-5-HT (no asterisk); for IC50: read-out: SERT pIC50 (converted)
Experimental: (§2) Neurotransmitter uptake assays were used to measure inhibition of ^3H-serotonin (^3H-5-HT), ^3H-norepinephrine (^3H-NE), and ^3H-dopamine (^3H-DA) uptake into cells expressing the respective transporter (hSERT, hNET or hDAT) in order to determine the pIC50 values of test compounds at the transporters.
(§3) HEK-293 derived cell lines stably-transfected with hSERT, hNET, or hDAT, respectively, were grown in DMEM medium supplemented with 10% dialyzed FBS (for hSERT) or FBS (for hNET and hDAT), 100 μg/ml penicillin, 100 μg/ml streptomycin, 2 mM L-glutamine and 250 μg/ml of the aminoglycoside antibiotic G418 (for hSERT and hNET) or 800 ug/ml (for hDAT), in a 5% CO2 humidified incubator at 37° C. When cultures reached 80% confluence, the cells were washed thoroughly in PBS (without Ca^2+ and Mg^2+) and lifted with 5 mM EDTA in PBS. Cells were harvested by centrifugation at 1100 rpm for 5 minutes, washed once by resuspension in PBS, then centrifuged. The supernatant was discarded and the cell pellet resuspended, by gentle trituration, in room temperature Krebs-Ringer bicarbonate buffer containing HEPES (10 mM), CaCl2 (2.2 mM), ascorbic acid (200 μM) and pargyline (200 μM), pH 7.4. The final concentration of cells in the cell suspension was 7.5×10^4 cells/ml, 1.25×10^5 cells/ml, and 5.0×10^4 cells/ml for SERT, NET, and DAT cell lines, respectively.
(§4) Neurotransmitter uptake assays were performed in a 96-well assay plate in a total volume of 400 μl assay buffer (Krebs-Ringer bicarbonate buffer containing HEPES (10 mM), CaCl2 (2.2 mM), ascorbic acid (200 μM) and pargyline (200 μM), pH 7.4) with 1.5×10^4 and 2.5×10^4 cells, for SERT, NET, and DAT, respectively. […] Stock solutions (10 mM in DMSO) of test compound were prepared and serial dilutions prepared using 50 mM Tris-HCl, 120 mM NaCl, 5 mM KCl, pH 7.4, 0.1% BSA, 400 μM ascorbic acid. Test compounds were incubated for 30 minutes at 37° C. with the respective cells, prior to addition of radiolabeled neurotransmitter, ^3H-5-HT (20 nM final concentration), ^3H-NE (50 nM final concentration) or ^3H-DA (100 nM final concentration). Non-specific neurotransmitter uptake was determined in the presence of 2.5 μM duloxetine, 2.5 μM desipramine, or 10 uM GBR-12909 (each in Dilution Buffer) for the hSERT, hNET, or hDAT assays, respectively.
(§5) Following a 10 minute incubation, at 37° C., with radioligand, the cells were harvested by rapid filtration over a 96-well UniFilter GF/B plate, pretreated with 1% BSA, and washed 6 times with 650 μl wash buffer (ice cold PBS). Plates were dried overnight at 37° C., ˜45 μl of MicroScint™-20 (Perkin Elmer) added and incorporated radioactivity quantitated via liquid scintillation spectroscopy Inhibition curves were analyzed using GraphPad Prism Software package (GraphPad Software, Inc., San Diego, Calif.). IC50 values were generated from concentration response curves using the Sigmoidal Dose Response (variable slope) algorithm in Prism GraphPad.

NET [4] = biological target: T2, NET; assay: hNET neurotransmitter uptake assay (3H-NE); format: cell-based; parameters: expressed in transfected cells; host or cells: HEK-293; details: norepinephrine reuptake inhibition, HEK-293 hNET cells, 3H-NE (no asterisk); for IC50: read-out: NET pIC50 (converted)
Experimental: as §2, §3, §4, §5

T1 sequence (P31645 whole entry): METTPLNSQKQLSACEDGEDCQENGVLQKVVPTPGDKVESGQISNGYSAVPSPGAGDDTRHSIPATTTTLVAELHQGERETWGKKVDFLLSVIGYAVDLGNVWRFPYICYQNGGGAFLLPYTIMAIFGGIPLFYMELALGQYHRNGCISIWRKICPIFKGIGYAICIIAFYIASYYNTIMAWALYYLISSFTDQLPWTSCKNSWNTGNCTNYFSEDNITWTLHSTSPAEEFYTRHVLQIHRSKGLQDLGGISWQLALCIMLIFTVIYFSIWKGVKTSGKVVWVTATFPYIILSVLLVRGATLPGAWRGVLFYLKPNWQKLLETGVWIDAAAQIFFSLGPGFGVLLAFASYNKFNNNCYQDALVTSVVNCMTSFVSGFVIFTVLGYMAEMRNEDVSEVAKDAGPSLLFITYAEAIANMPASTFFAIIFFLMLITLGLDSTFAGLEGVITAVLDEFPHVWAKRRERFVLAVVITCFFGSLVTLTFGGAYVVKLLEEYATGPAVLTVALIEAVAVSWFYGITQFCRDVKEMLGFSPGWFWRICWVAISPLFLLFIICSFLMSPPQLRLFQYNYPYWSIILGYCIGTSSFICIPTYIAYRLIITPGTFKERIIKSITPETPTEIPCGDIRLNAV
T2 sequence (P23975 whole entry): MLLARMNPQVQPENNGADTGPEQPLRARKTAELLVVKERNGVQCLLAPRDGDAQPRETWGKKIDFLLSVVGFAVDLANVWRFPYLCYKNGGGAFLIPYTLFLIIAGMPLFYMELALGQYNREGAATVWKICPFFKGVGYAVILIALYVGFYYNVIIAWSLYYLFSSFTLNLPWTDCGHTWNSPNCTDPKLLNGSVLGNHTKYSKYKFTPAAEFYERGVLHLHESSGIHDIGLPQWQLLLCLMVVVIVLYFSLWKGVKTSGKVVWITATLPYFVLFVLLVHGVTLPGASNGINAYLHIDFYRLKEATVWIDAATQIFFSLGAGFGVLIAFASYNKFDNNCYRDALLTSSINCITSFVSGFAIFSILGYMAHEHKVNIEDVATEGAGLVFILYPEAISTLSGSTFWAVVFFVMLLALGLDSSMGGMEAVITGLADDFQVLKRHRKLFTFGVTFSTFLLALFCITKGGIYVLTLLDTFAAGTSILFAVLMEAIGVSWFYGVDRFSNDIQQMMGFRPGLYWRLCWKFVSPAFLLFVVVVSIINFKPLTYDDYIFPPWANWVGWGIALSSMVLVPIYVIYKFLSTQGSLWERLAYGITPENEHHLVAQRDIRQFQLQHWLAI

Compound | Ki (SERT [1]) | Ki (NET [2]) | IC50 (SERT [3]) | IC50 (NET [4]) | further results
CCN(CC)C(=O)C1(c2ccccc2)CC1CN (stereo not drawn) [milnacipran] | – | – | – | – | selectivity (measured as pKi) for SERT over NET (SERT and NET): 2.5 fold
CNCC[C@@H](Oc1ccccc1C)c1ccccc1 [Atomoxetine] | – | – | – | – | NET selective (SERT and NET): 10 fold
COC[C@H](Oc1cccc(Cl)c1C(F)(F)F)[C@H]1CCNC1 [Example 4-21, (S)-3-[(R)-1-(3-Chloro-2-trifluoromethylphenoxy)-2-methoxyethyl]pyrrolidine] | ≤ 10 nM | ≤ 10 nM | ≤ 100 nM | ≤ 10 nM | –
COC[C@@H](Oc1cccc(Cl)c1Cl)[C@H]1CCNC1 [Example 4-9, (S)-3-[(S)-1-(2,3-Dichlorophenoxy)-2-methoxyethyl]pyrrolidine] | ≤ 10 nM | ≤ 10 nM | ≤ 10 nM | ≤ 10 nM | –
Clc1cccc(O[C@@H](C2CCOCC2)[C@@H]2CCNC2)c1Cl [Example 12, (R)-3-[(S)-(2,3-Dichlorophenoxy)(tetrahydropyran-4-yl)-methyl]pyrrolidine] | ≤ 10 nM | ≤ 10 nM | ≤ 10 nM | ≤ 10 nM | –
Clc1ccc(O[C@H](C2CCOCC2)[C@@H]2CCNC2)cc1 [Example 13-9, (R)-3-[(R)-(4-Chlorophenoxy)(tetrahydropyran-4-yl)methyl]pyrrolidine] | ≤ 10 nM | ≤ 10 nM | ≤ 10 nM | ≤ 10 nM | –
COC[C@@H](Oc1cccc(Cl)c1C)[C@H]1CCNC1 [Example 4-15, (S)-3-[(S)-1-(3-Chloro-2-methylphenoxy)-2-methoxyethyl]pyrrolidine] | ≤ 10 nM | ≤ 10 nM | ≤ 100 nM | ≤ 10 nM | –
COCC(Oc1ccc(Cl)cc1C)C1CCNC1 (stereo not drawn) [Example 4-26, 3-[1-(4-Chloro-2-methylphenoxy)-2-methoxyethyl]pyrrolidine] | ≤ 10 nM | ≤ 10 nM | ≤ 100 nM | ≤ 10 nM | –
Fc1cccc(O[C@@H](C2CCOCC2)[C@@H]2CCNC2)c1Cl [Example 13-17, (R)-3-[(S)-(2-Chloro-3-fluorophenoxy)(tetrahydropyran-4-yl)methyl]pyrrolidine] | ≤ 10 nM | ≤ 10 nM | ≤ 10 nM | ≤ 10 nM | –
COC[C@@H](Oc1cccc(F)c1Cl)[C@H]1CCNC1 [Example 4-13, (S)-3-[(S)-1-(2-Chloro-3-fluorophenoxy)-2-methoxyethyl]pyrrolidine] | ≤ 10 nM | ≤ 10 nM | ≤ 100 nM | ≤ 100 nM | –
Clc1cccc(Cl)c1O[C@@H](C1CCOCC1)[C@H]1CCNC1 [Example 13-24, (S)-3-[(S)-(2,6-Dichlorophenoxy)(tetrahydropyran-4-yl)methyl]pyrrolidine] | ≤ 10 nM | ≤ 10 nM | ≤ 10 nM | ≤ 10 nM | –
COC[C@H](Oc1cccc(Cl)c1Cl)[C@H]1CCNC1 [Example 4-10] | – | – | – | – | SERT pKi (SERT [1]): ≧8.0; NET pKi (NET [2]): ≧8.0; SERT pIC50 (SERT [3]): ≧8.0; NET pIC50 (NET [4]): ≧8.0
Clc1cccc(O[C@H](C2CCOCC2)[C@H]2CCNC2)c1Cl [Example 13-12, (S)-3-[(R)-(2,3-Dichlorophenoxy)(tetrahydropyran-4-yl)methyl]pyrrolidine] | ≤ 10 nM | ≤ 10 nM | ≤ 10 nM | ≤ 10 nM | –
Fc1cccc(O[C@H](C2CCOCC2)[C@H]2CCNC2)c1Cl [Example 13-15, (S)-3-[(R)-(2-Chloro-3-fluorophenoxy)(tetrahydropyran-4-yl)methyl]pyrrolidine] | ≤ 10 nM | ≤ 10 nM | ≤ 10 nM | ≤ 10 nM | –
COC[C@H](Oc1ccc(Cl)cc1C)[C@H]1CCNC1 [Example 4-25, (S)-3-[(R)-1-(4-Chloro-2-methylphenoxy)-2-methoxyethyl]pyrrolidine] | ≤ 10 nM | ≤ 10 nM | ≤ 10 nM | ≤ 10 nM | –
COC[C@@H](Oc1cccc(Cl)c1C(F)(F)F)[C@H]1CCNC1 [Example 4-20, (S)-3-[(S)-1-(3-Chloro-2-trifluoromethylphenoxy)-2-methoxyethyl]pyrrolidine] | ≤ 10 nM | ≤ 10 nM | ≤ 100 nM | ≤ 10 nM | –
CCOC[C@@H](Oc1cccc(Cl)c1Cl)[C@H]1CCNC1 [Example 7-8, (S)-3-[(S)-1-(2,3-Dichlorophenoxy)-2-ethoxyethyl]pyrrolidine] | ≤ 10 nM | ≤ 10 nM | ≤ 10 nM | ≤ 10 nM | –
CNCC[C@H](Oc1cccc2ccccc12)c1cccs1 [duloxetine] | – | – | – | – | affinity for SERT relative to NET (SERT and NET; Vaishnavi et al. (2004)): higher affinity for SERT relative to NET; selectivity (measured as pKi) for SERT over NET (SERT and NET): 10 fold
Fc1cccc(O[C@H](C2CCOCC2)[C@@H]2CCNC2)c1Cl [Example 13-16, (R)-3-[(R)-(2-Chloro-3-fluorophenoxy)(tetrahydropyran-4-yl)methyl]pyrrolidine] | ≤ 10 nM | ≤ 10 nM | ≤ 100 nM | ≤ 10 nM | –
Clc1ccccc1O[C@H](C1CCOCC1)[C@H]1CCNC1 [Example 13-4, (S)-3-[(R)-(2-Chlorophenoxy)(tetrahydropyran-4-yl)methyl]pyrrolidine] | ≤ 10 nM | ≤ 100 nM | ≤ 100 nM | ≤ 100 nM | –
